Measurements: patent US10251395B2, “Substituted furano-/thienocycloalkylamino-2-pyrimidine derivatives and use thereof for controlling undesired plant growth” (Bayer CropScience Aktiengesellschaft, priority 2015, dated 2019)
Values belong to the compound of their own block, whether it stands above or below them.

Tests used:
[1] = test system: Echinochloa crus-galli; experiment: Pre-emergence herbicidal effect; type: in vivo; details: scored visually after 3 weeks
How it was run: (§1)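 Scoring: visual, 3 weeks, % vs untreated (100% = died). Treatment: WP or EC in water, 0.2% wetting agent, sprayed on covering soil after sowing in sandy loam.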

[2] = test system: Polygonum convolvulus; experiment: Pre-emergence herbicidal effect; type: in vivo; details: scored visually after 3 weeks
How it was run: as §1

[3] = test system: Viola tricolor; experiment: Pre-emergence herbicidal effect; type: in vivo; details: scored visually after 3 weeks
How it was run: as §1

[4] = test system: Alopecurus myosuroides; experiment: Pre-emergence herbicidal effect; type: in vivo; details: scored visually after 3 weeks
How it was run: as §1

[5] = test system: Veronica persica; experiment: Pre-emergence herbicidal effect; type: in vivo; details: scored visually after 3 weeks
How it was run: as §1

[6] = test system: Stellaria media; experiment: Pre-emergence herbicidal effect; type: in vivo; details: scored visually after 3 weeks
How it was run: as §1

[7] = test system: Cyperus esculentus; experiment: Pre-emergence herbicidal effect; type: in vivo; details: scored visually after 3 weeks
How it was run: as §1

[8] = test system: Abutilon theophrasti; experiment: Pre-emergence herbicidal effect; type: in vivo; details: scored visually after 3 weeks
How it was run: as §1

[9] = test system: Matricaria inodora; experiment: Pre-emergence herbicidal effect; type: in vivo; details: scored visually after 3 weeks
How it was run: as §1

[10] = test system: Avena fatua; experiment: Pre-emergence herbicidal effect; type: in vivo; details: scored visually after 3 weeks
How it was run: as §1

[11] = test system: Lolium multiflorum; experiment: Pre-emergence herbicidal effect; type: in vivo; details: scored visually after 3 weeks
How it was run: as §1

[12] = test system: Amaranthus retroflexus; experiment: Pre-emergence herbicidal effect; type: in vivo; details: scored visually after 3 weeks
How it was run: as §1

[13] = test system: Setaria viridis; experiment: Pre-emergence herbicidal effect; type: in vivo; details: scored visually after 3 weeks
How it was run: as §1

[14] = test system: Echinochloa crus-galli; experiment: Post-emergence herbicidal effect; type: in vivo; details: assessed visually after about 3 weeks vs untreated controls
How it was run: (§2)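 Herbicidal effect was rated visually roughly 3 weeks after foliar treatment, as % versus untreated plants, with 0% meaning the same as controls and 100% meaning dead. Plants were treated at the one-leaf stage in the greenhouse with aqueous WP or EC sprays at 600–800 L/ha containing 0.2% wetter.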

[15] = test system: Polygonum convolvulus; experiment: Post-emergence herbicidal effect; type: in vivo; details: assessed visually after about 3 weeks vs untreated controls
How it was run: as §2

[16] = test system: Viola tricolor; experiment: Post-emergence herbicidal effect; type: in vivo; details: assessed visually after about 3 weeks vs untreated controls
How it was run: as §2

[17] = test system: Alopecurus myosuroides; experiment: Post-emergence herbicidal effect; type: in vivo; details: assessed visually after about 3 weeks vs untreated controls
How it was run: as §2

[18] = test system: Ipomoea purpurea; experiment: Post-emergence herbicidal effect; type: in vivo; details: assessed visually after about 3 weeks vs untreated controls
How it was run: as §2

[19] = test system: Veronica persica; experiment: Post-emergence herbicidal effect; type: in vivo; details: assessed visually after about 3 weeks vs untreated controls
How it was run: as §2

[20] = test system: Stellaria media; experiment: Post-emergence herbicidal effect; type: in vivo; details: assessed visually after about 3 weeks vs untreated controls
How it was run: as §2

[21] = test system: Abutilon theophrasti; experiment: Post-emergence herbicidal effect; type: in vivo; details: assessed visually after about 3 weeks vs untreated controls
How it was run: as §2

[22] = test system: Matricaria inodora; experiment: Post-emergence herbicidal effect; type: in vivo; details: assessed visually after about 3 weeks vs untreated controls
How it was run: as §2

[23] = test system: Avena fatua; experiment: Post-emergence herbicidal effect; type: in vivo; details: assessed visually after about 3 weeks vs untreated controls
How it was run: as §2

[24] = test system: Lolium multiflorum; experiment: Post-emergence herbicidal effect; type: in vivo; details: assessed visually after about 3 weeks vs untreated controls
How it was run: as §2

[25] = test system: Amaranthus retroflexus; experiment: Post-emergence herbicidal effect; type: in vivo; details: assessed visually after about 3 weeks vs untreated controls
How it was run: as §2

[26] = test system: Setaria viridis; experiment: Post-emergence herbicidal effect; type: in vivo; details: assessed visually after about 3 weeks vs untreated controls
How it was run: as §2

[27] = logP (HCOOH); type: physicochemical; details: HCOOH (formic acid)
Excerpt: Table 2 (physicochemical characterization of selected synthesis examples)

SMILES: Cc1cc2c(s1)CCCC2Nc1ncc(C#N)c(N)n1 (centres unmarked) [compound 282]
ECHCG pre-emergence efficacy (herbicidal activity) ([1]; Dosage 80 g/ha): 100%
ECHCG pre-emergence efficacy (herbicidal activity) ([1]; Dosage 320 g/ha): 100%
POLCO pre-emergence efficacy (herbicidal activity) ([2]; Dosage 80 g/ha): 100%
POLCO pre-emergence efficacy (herbicidal activity) ([2]; Dosage 320 g/ha): 100%
VIOTR pre-emergence efficacy (herbicidal activity) ([3]; Dosage 80 g/ha): 100%
VIOTR pre-emergence efficacy (herbicidal activity) ([3]; Dosage 320 g/ha): 100%
ALOMY pre-emergence efficacy (herbicidal activity) ([4]; Dosage 80 g/ha): 100%
ALOMY pre-emergence efficacy (herbicidal activity) ([4]; Dosage 320 g/ha): 100%
VERPE pre-emergence efficacy (herbicidal activity) ([5]; Dosage 80 g/ha): 100%
VERPE pre-emergence efficacy (herbicidal activity) ([5]; Dosage 320 g/ha): 100%
STEME pre-emergence efficacy (herbicidal activity) ([6]; Dosage 80 g/ha): 100%
STEME pre-emergence efficacy (herbicidal activity) ([6]; Dosage 320 g/ha): 100%
CYPES pre-emergence efficacy (herbicidal activity) ([7]; Dosage 80 g/ha): 80%
CYPES pre-emergence efficacy (herbicidal activity) ([7]; Dosage 320 g/ha): 100%
ABUTH pre-emergence efficacy (herbicidal activity) ([8]; Dosage 80 g/ha): 80%
ABUTH pre-emergence efficacy (herbicidal activity) ([8]; Dosage 320 g/ha): 80%
MATIN pre-emergence efficacy (herbicidal activity) ([9]; Dosage 80 g/ha): 100%
MATIN pre-emergence efficacy (herbicidal activity) ([9]; Dosage 320 g/ha): 100%
AVEFA pre-emergence efficacy (herbicidal activity) ([10]; Dosage 80 g/ha): 80%
AVEFA pre-emergence efficacy (herbicidal activity) ([10]; Dosage 320 g/ha): 90%
LOLMU pre-emergence efficacy (herbicidal activity) ([11]; Dosage 80 g/ha): 100%
LOLMU pre-emergence efficacy (herbicidal activity) ([11]; Dosage 320 g/ha): 100%
AMARE pre-emergence efficacy (herbicidal activity) ([12]; Dosage 80 g/ha): 100%
AMARE pre-emergence efficacy (herbicidal activity) ([12]; Dosage 320 g/ha): 100%
SETVI pre-emergence efficacy (herbicidal activity) ([13]; Dosage 80 g/ha): 100%
SETVI pre-emergence efficacy (herbicidal activity) ([13]; Dosage 320 g/ha): 100%
post-emergence efficacy ECHCG ([14]; 80 g/ha): 100%
post-emergence efficacy ECHCG ([14]; 320 g/ha): 100%
post-emergence efficacy POLCO ([15]; 80 g/ha): 90%
post-emergence efficacy POLCO ([15]; 320 g/ha): 90%
post-emergence efficacy VIOTR ([16]; 80 g/ha): 100%
post-emergence efficacy VIOTR ([16]; 320 g/ha): 100%
post-emergence efficacy ALOMY ([17]; 80 g/ha): 100%
post-emergence efficacy ALOMY ([17]; 320 g/ha): 100%
post-emergence efficacy PHBPU ([18]; 80 g/ha): 80%
post-emergence efficacy PHBPU ([18]; 320 g/ha): 90%
post-emergence efficacy VERPE ([19]; 80 g/ha): 80%
post-emergence efficacy VERPE ([19]; 320 g/ha): 90%
post-emergence efficacy STEME ([20]; 80 g/ha): 100%
post-emergence efficacy STEME ([20]; 320 g/ha): 100%
post-emergence efficacy ABUTH ([21]; 80 g/ha): 90%
post-emergence efficacy ABUTH ([21]; 320 g/ha): 90%
post-emergence efficacy MATIN ([22]; 80 g/ha): 90%
post-emergence efficacy MATIN ([22]; 320 g/ha): 90%
post-emergence efficacy AVEFA ([23]; 80 g/ha): 100%
post-emergence efficacy AVEFA ([23]; 320 g/ha): 100%
post-emergence efficacy LOLMU ([24]; 80 g/ha): 100%
post-emergence efficacy LOLMU ([24]; 320 g/ha): 100%
post-emergence efficacy AMARE ([25]; 80 g/ha): 100%
post-emergence efficacy AMARE ([25]; 320 g/ha): 100%
post-emergence efficacy SETVI ([26]; 80 g/ha): 100%
post-emergence efficacy SETVI ([26]; 320 g/ha): 100%

chromatographic logP [27]: 2.66
SMILES: Cc1sc2c(c1C)C(Nc1ncc(C(F)(F)F)c(N)n1)CCC2 (centres unmarked) [compound 213, N2-(2,3-Dimethyl-4,5,6,7-tetrahydrobenzothiophen-4-yl)-5-(trifluoromethyl)pyrimidine-2,4-diamine]
ECHCG pre-emergence efficacy (herbicidal activity) ([1]; Dosage 80 g/ha): 90%
ECHCG pre-emergence efficacy (herbicidal activity) ([1]; Dosage 320 g/ha): 100%
POLCO pre-emergence efficacy (herbicidal activity) ([2]; Dosage 80 g/ha): 90%
POLCO pre-emergence efficacy (herbicidal activity) ([2]; Dosage 320 g/ha): 100%
VIOTR pre-emergence efficacy (herbicidal activity) ([3]; Dosage 80 g/ha): 100%
VIOTR pre-emergence efficacy (herbicidal activity) ([3]; Dosage 320 g/ha): 100%
ALOMY pre-emergence efficacy (herbicidal activity) ([4]; Dosage 80 g/ha): 100%
ALOMY pre-emergence efficacy (herbicidal activity) ([4]; Dosage 320 g/ha): 100%
VERPE pre-emergence efficacy (herbicidal activity) ([5]; Dosage 80 g/ha): 100%
VERPE pre-emergence efficacy (herbicidal activity) ([5]; Dosage 320 g/ha): 100%
STEME pre-emergence efficacy (herbicidal activity) ([6]; Dosage 80 g/ha): 100%
STEME pre-emergence efficacy (herbicidal activity) ([6]; Dosage 320 g/ha): 100%
CYPES pre-emergence efficacy (herbicidal activity) ([7]; Dosage 80 g/ha): 80%
CYPES pre-emergence efficacy (herbicidal activity) ([7]; Dosage 320 g/ha): 80%
ABUTH pre-emergence efficacy (herbicidal activity) ([8]; Dosage 320 g/ha): 100%
MATIN pre-emergence efficacy (herbicidal activity) ([9]; Dosage 80 g/ha): 100%
MATIN pre-emergence efficacy (herbicidal activity) ([9]; Dosage 320 g/ha): 100%
AVEFA pre-emergence efficacy (herbicidal activity) ([10]; Dosage 320 g/ha): 100%
LOLMU pre-emergence efficacy (herbicidal activity) ([11]; Dosage 80 g/ha): 80%
LOLMU pre-emergence efficacy (herbicidal activity) ([11]; Dosage 320 g/ha): 100%
AMARE pre-emergence efficacy (herbicidal activity) ([12]; Dosage 80 g/ha): 100%
AMARE pre-emergence efficacy (herbicidal activity) ([12]; Dosage 320 g/ha): 100%
SETVI pre-emergence efficacy (herbicidal activity) ([13]; Dosage 80 g/ha): 100%
SETVI pre-emergence efficacy (herbicidal activity) ([13]; Dosage 320 g/ha): 100%
post-emergence efficacy ECHCG ([14]; 320 g/ha): 90%
post-emergence efficacy POLCO ([15]; 320 g/ha): 90%
post-emergence efficacy VIOTR ([16]; 80 g/ha): 90%
post-emergence efficacy VIOTR ([16]; 320 g/ha): 100%
post-emergence efficacy ALOMY ([17]; 320 g/ha): 90%
post-emergence efficacy PHBPU ([18]; 320 g/ha): 90%
post-emergence efficacy VERPE ([19]; 80 g/ha): 80%
post-emergence efficacy VERPE ([19]; 320 g/ha): 90%
post-emergence efficacy STEME ([20]; 80 g/ha): 80%
post-emergence efficacy STEME ([20]; 320 g/ha): 90%
post-emergence efficacy ABUTH ([21]; 80 g/ha): 80%
post-emergence efficacy ABUTH ([21]; 320 g/ha): 90%
post-emergence efficacy MATIN ([22]; 320 g/ha): 90%
post-emergence efficacy AVEFA ([23]; 80 g/ha): 80%
post-emergence efficacy AVEFA ([23]; 320 g/ha): 80%
post-emergence efficacy LOLMU ([24]; 80 g/ha): 80%
post-emergence efficacy LOLMU ([24]; 320 g/ha): 80%
post-emergence efficacy AMARE ([25]; 80 g/ha): 80%
post-emergence efficacy AMARE ([25]; 320 g/ha): 90%
post-emergence efficacy SETVI ([26]; 80 g/ha): 50%
post-emergence efficacy SETVI ([26]; 320 g/ha): 90%
